In assay [1] the test system is IL-12p40 production in primary mouse microglia (wild type, SOD1). Description: IL-12p40 ELISA, wild-type and SOD1 primary microglia, LPS stimulation. Format: cell-based. The following applies: LPS stimulation, 50, 100, 200 nM, wild type and SOD1 cells. On the procedure: (§1) The impact of a deuterated CSF-1R inhibitor of this disclosure on cytokine/chemokine production following CSF-1 or LPS stimulation in wild-type versus SOD1 mutant primary microglial cells was examined in the following experiments.
(§2) Methods Treatment and Stimulation of Primary Microglial Cells
(§3) Primary mouse microglia were suspended at a concentration of 5×10^5 cells/mL and 100 μL of this cell suspension was added to each well of a 96-well plate. Microglia cells were allowed to rest overnight at 37° C., 5% CO2. […] Cells were then stimulated with 100 ng/mL recombinant mouse M-CSF for 30 minutes or 10 ng/mL lipopolysaccharide for 24 hours. After stimulation, the culture supernatant was removed from each well and aliquoted into two different 96-well plates for subsequent ELISA assays.
Cell culture supernatants were assayed with the Quantikine Mouse IL-12p40 ELISA kit from R&D Systems (cat #MP400). Samples were diluted 1:10 with Calibrator Diluent. Fifty microliters of Assay Diluent were first added to each well. Fifty microliters of Standards, Assay Control and diluted Sample were then added in singlicate to the wells. The plate was mixed by gently tapping the frame, then sealed with an adhesive strip. The plate incubated for 2 hours at room temperature. […] After incubation, the acid stop solution was added to each well, and the plate was read on the ELISA plate reader at 450 nm.
For orientation: An ELISA detects its analyte on a solid surface through an enzyme-linked reagent.

Assay [2] concerns MCP-1 production in primary mouse microglia (wild type, SOD1). The experiment in a line: MCP-1 ELISA, wild-type and SOD1 primary microglia, CSF-1 stimulation. Format: cell-based. To be noted: CSF-1 stimulation, 50, 100, 200 nM, wild type and SOD1 cells. The method, then:
as §1, §2, §3
Culture supernatants were assayed with the Quantikine Mouse MCP-1 ELISA kit from R&D Systems (cat #SMJE00B). Samples were diluted 1:10 with Calibrator Diluent. Fifty microliters of Assay Diluent were first added to each well. Fifty microliters of Standards, Assay Control and diluted Sample were then added to the wells. The plate was mixed by gently tapping the frame, then sealed with an adhesive strip. The plate incubated for 2 hours at room temperature. […] After incubation, the acid stop solution was added to each well, and the plate was read on the ELISA plate reader at 450 nm.

Each structure is given as a SMILES string.

Regarding `[2H]c1nc2cccnc2n1Cc1cc(OC)c2c(c1)O[C@@H](C)[C@H](c1ccc(OC)nc1)O2` [Compound 6, 3-(((2S,3S)-8-methoxy-2-(6-methoxypyridin-3-yl)-3-methyl-2,3-dihydrobenzo[b][1,4]dioxin-6-yl)methyl)-3H-imidazo[4,5-b]pyridine-2-d], the IL12-p40 production entry in assay [1] is on record as “significantly reduced IL12-p40 production in a concentration dependent manner”. For the same compound, in assay [2], the MCP-1 production result is “significantly reduced MCP-1 production in a concentration dependent manner”.

The values are drawn from patent US11530216B2, “Deuterated colony stimulating factor-1 receptor (CSF-1R) inhibitors” (Genzyme Corporation, priority 2020, dated 2022).
